Literature values, collected in patent publication US8137579B2, “Non-aqueous heat transfer fluid and use thereof” (priority 1993, dated 2012).
Read-outs that look alike come from different tables or passages of the source.

Key:
[1] = laboratory rats, single dose, acute oral

SMILES	LD50 rating (laboratory rats; [1])	LD50 rating (laboratory rats; rat, in vivo, po)	toxic level to humans, reported as low as (humans)
OCCOCCO [Diethylene glycol]	16600 mg/kg	–	–
CC(O)CO (stereo not drawn) [PG, propylene glycol]	33700 mg/kg	–	–
CC(O)COC(C)COC(C)CO (stereo not drawn) [tripropylene glycol]	–	3000 mg/kg	–
OCCO [EG, ethylene glycol]	6100 mg/kg	–	0.398 g/kg
OCCOCCOCCO [triethylene glycol]	–	22000 mg/kg	–
